Test system: KB tumors
Assay: In vivo antitumor experiments, s.c. KB tumors in nu/nu mice
Settings: i.v., EC145 1 μmol/kg/injection TIW 2 weeks
Description: Four to six week-old female nu/nu mice (Charles River, Wilmington, Mass.) or six to seven week-old female Balb/c mice (Harlan Sprague Dawley, Inc., Indianapolis, Ind.) were maintained on a standard 12 h light-dark cycle and fed ad libitum with folate-deficient chow (Harlan diet #TD00434, Harlan Teklad, Madison, Wis.) for the duration of the experiment. FR-positive human nasopharyngeal KB cells and human ovarian IGROV cells were grown continuously as a monolayer, using folate-free RPMI medium (FFRPMI) containing 10% heat-inactivated fetal calf serum (HIFCS) at 37° C. in a 5% CO2/95% air-humidified atmosphere with no antibiotics. Syngeneic FR-positive Madison 109 (M109) lung carcinoma cells were generated from M109 tumors and cultured for a few days in FFRPMI containing 10% HIFCS for a few days before implantation in mice. KB cells (1×10^6 per nu/nu mouse), M109 cells (1×10^6 per Balb/c mouse), IGROV cells (4×10^6 per nu/nu mouse) in 100 μL were injected in the subcutis of the dorsal medial area. Mice were divided into groups of five, and test articles were freshly prepared and injected through the lateral tail vein under sterile conditions in a volume of 200 μL of phosphate-buffered saline (PBS). […] The mice in the control groups received no treatment. Growth of each s.c. tumor was followed by measuring the tumor three times per week during treatment and twice per week thereafter until a volume of 1500 mm^3 was reached. Tumors were measured in two perpendicular directions using Vernier calipers, and their volumes were calculated as 0.5×L×W^2, where L=measurement of longest axis in mm and W=measurement of axis perpendicular to L in mm. As a general measure of toxicity, changes in body weights were determined on the same schedule as tumor volume measurements. Survival of animals was monitored daily. Animals that were moribund (or unable to reach food or water) were euthanized by CO2 asphyxiation. All in vivo studies were performed in accordance with the American Accreditation Association of Laboratory Animal Care guidelines.
For individual tumors, a partial response (PR) was defined as volume regression>50% but with measurable tumor (>2 mm^3) remaining at all times. Complete response (CR) was defined as a disappearance of measurable tumor mass (<2 mm^3) at some point until the end of the study. Cures were defined as CR's without tumor re-growth within the study time frame.
See FIG. 1 for tumor response and FIG. 2 for weight change during the treatment period.
See FIG. 3 for tumor response and FIG. 4 for weight change during the treatment period.
See FIG. 5 for tumor response and FIG. 6 for weight change during the treatment period.

[1] = KB tumors 111-173 mm^3, five animals per group, Paclitaxel 20 mg/kg TIW in Cremophor/ethanol 1 week (FIG. 5)
[2] = KB tumors 144-212 mm^3, five animals per group, Docetaxel 10 mg/kg TIW 1 week (FIG. 1)

Compound | Cures [1] | complete responses [1] | Cures [2] | complete responses [2] | partial responses [2]
CC(=O)O[C@H]1C(=O)[C@@]2(C)[C@H]([C@H](OC(=O)c3ccccc3)[C@]3(O)C[C@H](OC(=O)[C@H](O)[C@@H](NC(=O)c4ccccc4)c4ccccc4)C(C)=C1C3(C)C)[C@]1(OC(C)=O)CO[C@@H]1C[C@@H]2O [Paclitaxel, paclitaxel] | 3 | 2 | – | – | –
CC(=O)O[C@@]12CO[C@@H]1C[C@H](O)[C@@]1(C)C(=O)[C@H](O)C3=C(C)[C@@H](OC(=O)[C@H](O)[C@@H](NC(=O)OC(C)(C)C)c4ccccc4)C[C@@](O)([C@@H](OC(=O)c4ccccc4)[C@H]21)C3(C)C [Docetaxel, docetaxel] | – | – | no | no | no

Source: patent US8987281B2, “Methods of treating cancer” (Endocyte, Inc., priority 2010, dated 2015)
